Earlier results on 6 substances are cited in patent US4271152A, “Psycho-pharmacological peptides” (Akzo N.V., priority 1979, dated 1981).

Series [1] deals with avoidance behaviour of rats. The conditions noted are these: pole-jumping test; for extinction of the (pole-jumping) avoidance behaviour: background knowledge / earlier Dutch application.
For series [2] the following is noted: can be antagonized by naloxon.

“Also recorded” adds a separate entry of the source.

In the case of D-Ala^2 -Met-enkephalin, the “affinity to the opiate receptor” value in the series with opiate receptor is listed as “affinity to the opiate receptor”. As to Leu-enkephaline, the “affinity to the opiate receptor” value in the series on opiate receptor is reported as “affinity to the opiate receptor”. As to Met-enkephalin, the “affinity to the opiate receptor” value with opiate receptor is “affinity to the opiate receptor”. Further, in series [1], the “extinction of the (pole-jumping) avoidance behaviour” value was “inhibit the extinction of the avoidance behaviour”. As for α-endorphin, the “affinity to the opiate receptor” value in the series on opiate receptor is given as “affinity to the opiate receptor”. The “extinction of the (pole-jumping) avoidance behaviour” value in series [1] is reported as “inhibit the extinction of the avoidance behaviour; also recorded: delayed the extinction of the avoidance behaviour”.

Regarding “β-endorphin (YGGFMTSEKSQTPLVTLFKNAIIKNAYKKGE; Beta-endorphin; UniProt P01189 237-267, looked up)”, the analgetic effect result in series [2] is reported as “analgetic effect”. Also, in series [1], the “counteraction by morphine antagonists (naloxon, naltrexon) of the inhibition of extinction” value was “cannot be counteracted by known morphine antagonists” and the “extinction of the (pole-jumping) avoidance behaviour” value is recorded as “inhibits the extinction”. Turning to γ-endorphin, the “extinction of the (pole-jumping) avoidance behaviour” value in series [1] was “accelerate the extinction of the avoidance behaviour”.
